According to patent US5185352A, “Alkoxy-4(1H)-pyridone derivatives, processes for the preparation thereof and pharmaceutical compositions containing them” (Goedecke Aktiengesellschaft, priority 1988, dated 1993):
Where a name gives a salt, the structure may show the parent alone. Read-outs that look alike come from different tables or passages of the source.

Columns and labels:
[1] = tested on: Noradrenaline-Precontracted Aorta; assay: Endothelium-dependent smooth muscle relaxation of noradrenaline-precontracted rabbit aorta rings in an organ bath; conditions: Oryctolagus cuniculus, noradrenaline 3 × 10^-7 mol/L
Experimental: Rabbit aorta rings are fixed in an organ bath filled with physiological salt solution (Krebs-Henseleit) between L-shaped wires. The solution is gassed with carbogen. Contractions are initiated by 3×10^-7 noradrenaline. When the tension has reached a stable plateau, compounds of the instant invention are added. The effect of the compounds first is tested on organ preparation with functioning endothelium. In an additional experiment in order to test whether the relaxation is endothelium-dependent the compounds are tested with aorta rings with damaged endothelium. For an endothelium-dependent relaxation, effected by the endothelium-derived relaxating factor (EDRF), the following characteristics are required: absence of the effect in preparations with damaged endothelium, no inhibition of the relaxation by indomethazine and inhibition of the relaxation by NDGA (nordihydro-guaiaretic acid), methylene blue and gossypol. These criteria are completely met by the compounds listed in Table II, and one can conclude, that the compounds of the instant invention act in an unexpected manner by the release of EDRF, and thereby relax vascular smooth muscle.

[2] = molecular target: calcium- and phospholipid-dependent protein kinase (PKC); assay: Inhibition of the activity of protein kinase C (incorporation of P^32-labelled phosphate into histone H-1); format: biochemical; conditions: PKC enriched from rat brain; histone H-1 substrate; 5 min, 30° C.; pH 7.5
From the text: For the clarification of the inhibiting influence of compounds of formula I according to the present invention on the calcium- and phospholipid-dependent protein kinase (PKC), this enzyme activity was enriched from rat brain. Using the purification steps described in the literature (J. Biol. Chem., 260, 15718-15722/1985), in the case of a purification consisting of two steps, there was utilized the property of the enzyme to bind to cell membranes in the presence of calcium and to be dissolved off again by calcium chelators (EGTA). In the first enrichment step, there took place the binding of the PKC to membranes of the rat brain and in the second step on so-called inside-out vesicles or erythrocytes. After dissolving off from the erythrocyte membranes and rebuffering, the PKC preparation was present in 10 mM HEPES, 1 mM DTT, 0.1% PEG 20000, pH 7.5. Under these conditions, it could be stored at -70° C. for several months without loss of activity.
The activity of the enzyme was determined via the incorporation of P^32 -labelled phosphate into the protein histone H-1 (Sigma Type III) which can be phosphorylated by PKC.
The test thereby contains the following components: 50 mM HEPES-NaOH (pH 7.5), 5 mM magnesium chloride, 1 mM DTT, 4 μm. free calcium ions, 10 μMaTP, 1 μg phosphatidylserine, 0.2 μg 1,2-diolein, as well as 40 μg histone H-1 and optionally the test substance.
The batch is preincubated for 4 minutes at 30° C. and the reaction then started by the addition of 5 nM PKC. After incubating for 5 minutes at 30° C., the reaction is stopped with 10% TCA and the samples then filtered off. The phosphate incorporation is determined by Cerenkov counting in a scintillation counter. The kinase activity measured in the absence of the test substance was, in each case, taken as being 100% and the inhibiting action of the compounds of formula I referred thereto as percentages.

[3] = damaged endothelium, read-out: Relaxation of Noradrenaline-Precontracted Aorta, EC50, Damaged Endothelium
[4] = functioning endothelium, read-out: Relaxation of Noradrenaline-Precontracted Aorta, EC50, Functioning Endothelium

Compound	EC50 [1, 4] [nM]	IC50 [2] [nM]	EC50 [1, 3] [nM]
CC(=O)OCC[N+](C)(C)C [Acetylcholine, reference compound]	30	–	> 100000
CCCCCCCCCCCCCCCCCCOc1cn(Cc2ccc(Cl)cc2)c(CNCCCN(C)C)cc1=O [Example 69, 1-(4-Chlorobenzyl)-2-[N-(3-dimethylamino-propyl)aminomethyl]-5-octadecyloxy-4(1H)-pyridone difumarate 1.25 hydrate]	30000	1500	> 100000
CCCCCCCCCCCCCCCCCCOc1cn(Cc2ccccc2)c(CN2CCC(CN)(c3ccccc3)CC2)cc1=O [Example 101, 1-[(1-Benzyl-5-octadecyloxy-4(1H)-pyridon-2-yl)methyl]-4-aminomethyl-4-phenylpiperidine trihydrochloride]	20000	1500	> 100000
CCCCCCCCCCCCCCCCCCOc1cn(Cc2ccc(C)cc2)c(COCCCN(C)C)cc1=O [Example 106, 2-(3-Dimethylaminopropoxymethyl)-1-(4-methylbenzyl)-5-octadecyloxy-4(1H)-pyridone dihydrochloride sesquihydrate]	–	2400	–
CCCCCCCCCCCCCCCCCCOc1cn(Cc2ccc(OC)cc2)c(COCCCN(C)C)cc1=O [Example 107, 2-(3-Dimethylaminopropoxymethyl)-1-(4-methoxybenzyl)-5-octadecyloxy-4(1H)-pyridone dihydrochloride 1/4 hydrate]	–	2900	–
CCCCCCCCCCCCCCCCCCOc1cn(CC2CCCCC2)c(COCCCN(C)C)cc1=O [Example 108, 1-Cyclohexylmethyl-2-(3-dimethylaminopropoxymethyl)-5-octadecyloxy-4(1H)-pyridone oxalate]	–	2900	–

Further lines, with some results ahead:

EC50 [1, 4] [nM]	IC50 [2] [nM]	Compound	EC50 [1, 3] [nM]
15000	1400	CCCCCCCCCCCCCCCCCCOc1cn(Cc2ccccc2)c(CNCCCN(C)C)cc1=O [Example 54, 1-Benzyl-2-[N-(3-dimethylaminopropyl)-aminomethyl]-5-octadecyloxy-4(1H)-pyridone dioxalate]	> 100000
3000	1800	CCCCCCCCCCCCCCCCCCOc1cn(Cc2ccccc2)c(CNCCCN(C)Cc2ccccc2)cc1=O [Example 71, 1-Benzyl-2-[N-(3-N-benzyl-N-methylaminopropyl)aminomethyl]-5-octadecyloxy-4(1H)-pyridone difumarate]	> 100000
3400	3000	CCCCCCCCCCCCCCCCCCOc1cn(Cc2ccccc2)c(CN2CCN(Cc3ccccc3)CC2)cc1=O [Example 88, 1-[(1-Benzyl-5-octadecyloxy-4(1H)-pyridon-2-yl)methyl]-4-benzylpiperazine]	> 100000
–	2600	CCCCCCCCCCCCCCCCCCOc1cn(Cc2ccc(Cl)cc2)c(COCCCN(C)C)cc1=O [Example 109, 1-(4-Chlorobenzyl)-2-(3-dimethylaminopropoxymethyl)-5-octadecyloxy-4(1H)-pyridone dihydrochloride 2.5 hydrate]	–
–	9000	CCCCCCCCCCCCCCCCCCOc1cn(Cc2ccccc2)c(CCC(=O)OC)cc1=O [Example 114, Methyl 3-[1-benzyl-5-octadecyloxy-4(1H)-pyridon-2-yl]-propionate]	–
–	9000	CCCCCCCCCCCCCCCCCCOc1cn(Cc2ccccc2)c(CCC(N)=O)cc1=O [Example 116, 3-[1-benzyl-5-octadecyloxy-4(1H)-pyridon-2-yl]-propionic acid amide]	–
